According to PubChem BioAssay AID1963871 (Molecular Pharmacology Branch, DTP, NCI, 2024):

Test system: KRAS-mutant PDC multicell tumor spheroid viability
Assay: Anticancer human tumor 521955-158-R2-J5-PDC patient-derived pancreatic carcinoma cell line growth inhibition [KRAS2]
Details: for viability, T/C: stronger effect = lower value
Description: Multicellular complex tumor spheroid response to RAS pathway inhibitors in combination with a targeted agents in patient-derived cell lines with oncogenic KRAS variants from multiple cancer types
A high-throughput screen of multi-cell type tumor spheroids was designed to identify active combinations of targeted small molecules and KRAS pathway inhibitors. Complex spheroids include a stromal component modeled by human endothelial cells (HUVEC) and fibroblasts modeled by human mesenchymal stem cells (MSCs). The concentration ranges selected for each drug and investigational agent were based upon clinically achievable concentrations if the clinical Cmax of the agent was known.
Compounds. The drugs and investigational agents: BI-3406 (NSC825286), BAY-293 (NSC824723), batoprotafib (TNO155; NSC825523), sotorasib (AMG 510; NSC818433), MRTX1257 (NSC819558), elimusertib (BAY 1895344; NSC800525), molibresib (GSK525762; NSC774829), temuterkib (LY3214996; NSC803410), venetoclax (NSC766270), alisertib (NSC759677), olaparib (NSC753686), talazoparib (NSC767125), erdafitinib (NSC781556), ipatasertib (NSC767898), cabozantinib (NSC761068), nintedanib (NSC756659), abemaciclib (NSC768073), docetaxel (NSC628503), trametinib (NSC758246), and sapanisertib (NSC764658) were obtained from the National Cancer Institute (NCI) Developmental Therapeutics Program Chemical Repository. The FDA-approved anticancer drug set is available from the Developmental Therapeutics Program. […] The stock solutions were prepared in dimethyl sulfoxide (DMSO, Sigma-Aldrich, St. Louis, MO, cat. D2650) at 800-fold the tested concentration and stored at -70 degrees C prior to their use. All drugs and investigational agents were tested over a range starting from a high concentration at or near the clinical Cmax and decreasing in half-log increments. If the clinical Cmax for an agent had not been determined, the highest concentration tested was 10 microM.
Cell Culture. All cells were maintained in an incubator at 37 degrees C and 5% CO2 with 95% humidity. The PDC lines were cultured according to standard operating procedures established by the NCI PDMR (https://pdmr.cancer.gov/sops/default.htm). Briefly, all PDCs were thawed and cultured in Matrigel-coated flasks prepared with a working solution of 1X Ham's F-12 nutrient mix, without supplementation (Invitrogen, Waltham, MA, cat. 11765054), 100 U/mL penicillin-streptomycin (Invitrogen, cat. 15140122), and 2.5% Matrigel (Corning Inc., Corning, NY, cat. 354248) for the first three passages. All PDCs were cultured in complete DMEM/F-12 media containing advanced DMEM/F-12 (Invitrogen, cat. 12634028), 4.9% defined fetal bovine serum, heat inactivated (HyClone Laboratories Inc., Logan, UT, cat. SH30070.03HI), 389 ng/mL hydrocortisone (Sigma-Aldrich, cat. H4001), 9.7 ng/mL human EGF recombinant protein (Invitrogen, cat. PHG0313), 23.4 microg/mL adenine (Sigma-Aldrich, cat. A2786), 97.3 U/mL penicillin-streptomycin (Invitrogen, cat. 15140122), 1.9 mM L-glutamine (Invitrogen, cat. 25030081), and 9.7 microM Y-27632 dihydrochloride (Tocris Bioscience, Bristol, United Kingdom, cat. 1254). The PDCs were cultured in complete DMEM/F12 media without 9.7 microM Y-27632 dihydrochloride for at least two passages prior to the screen. The established cell line HOP-62 was cultured in RPMI 1640 medium, HEPES (Invitrogen, cat. 22400105) with 10% defined fetal bovine serum (HyClone Laboratories Inc., cat. SH30070.03) and 2 mM L-glutamine (Invitrogen, cat. 25030081). The pooled donor HUVEC were cultured in endothelial cell growth medium 2 (PromoCell, Heidelberg, Germany, cat. C-22011) and the hMSC were cultured in mesenchymal stem cell growth medium 2 (PromoCell, cat. C-28009). For all experiments, HUVEC and hMSC were used at passages </=5, while the malignant cell lines were used at passages </=15. […]

[1] = curve of first compound, second compound 0.1 µM
[2] = curve of first compound, second compound 0.316 µM
[3] = curve of first compound, second compound 1 µM
[4] = curve of first compound, second compound 3.16 µM
[5] = curve of first compound, second compound 10 µM
[6] = second compound 0.1 µM, first compound 0.0316 µM
[7] = second compound 0.1 µM, first compound 0.1 µM
[8] = second compound 0.1 µM, first compound 0.316 µM
[9] = second compound 0.1 µM, first compound 1 µM
[10] = second compound 0.1 µM, first compound 3.16 µM
[11] = second compound 0.1 µM, first compound 10 µM
[12] = second compound 0.316 µM, first compound 0.0316 µM
[13] = second compound 0.316 µM, first compound 0.1 µM
[14] = second compound 0.316 µM, first compound 0.316 µM
[15] = second compound 0.316 µM, first compound 1 µM
[16] = second compound 0.316 µM, first compound 3.16 µM
[17] = second compound 0.316 µM, first compound 10 µM
[18] = second compound 1 µM, first compound 0.0316 µM
[19] = second compound 1 µM, first compound 0.1 µM
[20] = second compound 1 µM, first compound 0.316 µM
[21] = second compound 1 µM, first compound 1 µM
[22] = second compound 1 µM, first compound 3.16 µM
[23] = second compound 1 µM, first compound 10 µM
[24] = second compound 3.16 µM, first compound 0.0316 µM
[25] = second compound 3.16 µM, first compound 0.1 µM
[26] = second compound 3.16 µM, first compound 0.316 µM
[27] = second compound 3.16 µM, first compound 1 µM
[28] = second compound 3.16 µM, first compound 3.16 µM
[29] = second compound 3.16 µM, first compound 10 µM
[30] = second compound 10 µM, first compound 0.0316 µM
[31] = second compound 10 µM, first compound 0.1 µM
[32] = second compound 10 µM, first compound 0.316 µM
[33] = second compound 10 µM, first compound 1 µM
[34] = second compound 10 µM, first compound 3.16 µM
[35] = second compound 10 µM, first compound 10 µM
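Note: viability read after seven days of drug exposure.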

In the case of COc1cc(OC)cc(N(CCNC(C)C)c2ccc3ncc(-c4cnn(C)c4)nc3c2)c1, the viability, T/C (compound 0.0316 µM) is reported as 94.3% [middle of 5 runs], the viability, T/C (compound 0.1 µM) is reported as 99.1% [middle of 5 runs] and the viability, T/C (compound 0.316 µM) is reported as 105% [middle of 5 runs]. The viability, T/C (compound 1 µM) was 123% [middle of 5 runs], the viability, T/C (compound 10 µM) was 0.56% [middle of 5 runs] and the IC50 (curve of compound) was 6.06 µM [middle of 4 runs].
Work on Cn1nccc1Nc1nccc(-c2cc3c(s2)C(C)(C)N(CCN2CCOCC2)C3=O)n1 + COc1cc2nc(C)nc(NC(C)c3cc(N)cc(C(F)(F)F)c3)c2cc1OC1CCOC1 yielded an IC50 [1] of 355 nM, an IC50 [2] of 522 nM and an IC50 [3] of 574 nM. For the same compound, the IC50 [4] was 510 nM, the IC50 [5] was 104 nM and the viability, T/C [6] was 92.5%. It also gave a viability, T/C [7] of 77.9%, a viability, T/C [8] of 47.1% and a viability, T/C [9] of 36.8%. The viability, T/C [10] was 24.6%, the viability, T/C [11] was 17.6% and the viability, T/C [12] was 104%. The viability, T/C [13] was 83.7%, the viability, T/C [14] was 57.2% and the viability, T/C [15] was 40%. It also gave a viability, T/C [16] of 23.8%, a viability, T/C [17] of 16.6% and a viability, T/C [18] of 83.2%. It also gave a viability, T/C [19] of 87.6%, a viability, T/C [20] of 62% and a viability, T/C [21] of 37%. It also gave a viability, T/C [22] of 21.2%, a viability, T/C [23] of 13.9% and a viability, T/C [24] of 86%. For the same compound, the viability, T/C [25] was 75.3%, the viability, T/C [26] was 60.8% and the viability, T/C [27] was 36.1%. For the same compound, the viability, T/C [28] was 17.4%, the viability, T/C [29] was 8.1% and the viability, T/C [30] was 76.8%. For the same compound, the viability, T/C [31] was 51%, the viability, T/C [32] was 16.8% and the viability, T/C [33] was 4.05%. For the same compound, the viability, T/C [34] was 1.96% and the viability, T/C [35] was 0.81%.
CN(C)C/C=C/C(=O)Nc1cc2c(Nc3ccc(F)c(Cl)c3)ncnc2cc1O[C@H]1CCOC1 + CC1OCC2(CCN(c3cnc(Sc4ccnc(N)c4Cl)c(N)n3)CC2)C1N showed an IC50 [1] of over 100 nM, an IC50 [2] of over 100 nM and an IC50 [3] of over 100 nM. For the same compound, the IC50 [4] was under 0.316 nM, the IC50 [5] was over 100 nM and the viability, T/C (second compound 0.1 µM, first compound 0.000316 µM) was 71.7%. It also gave a viability, T/C (second compound 0.1 µM, first compound 0.001 µM) of 66.5%, a viability, T/C (second compound 0.1 µM, first compound 0.00316 µM) of 56.3% and a viability, T/C (second compound 0.1 µM, first compound 0.01 µM) of 73.4%. For the same compound, the viability, T/C [6] was 81.9%, the viability, T/C [7] was 59.3% and the viability, T/C (second compound 0.316 µM, first compound 0.000316 µM) was 60.5%. The viability, T/C (second compound 0.316 µM, first compound 0.001 µM) was 70.3%, the viability, T/C (second compound 0.316 µM, first compound 0.00316 µM) was 57.3% and the viability, T/C (second compound 0.316 µM, first compound 0.01 µM) was 57.6%. The viability, T/C [12] was 63.5%, the viability, T/C [13] was 58.2% and the viability, T/C (second compound 1 µM, first compound 0.000316 µM) was 112%. The viability, T/C (second compound 1 µM, first compound 0.001 µM) was 107%, the viability, T/C (second compound 1 µM, first compound 0.00316 µM) was 85.3% and the viability, T/C (second compound 1 µM, first compound 0.01 µM) was 75.5%. For the same compound, the viability, T/C [18] was 78.6%, the viability, T/C [19] was 73.1% and the viability, T/C (second compound 3.16 µM, first compound 0.000316 µM) was 28%. For the same compound, the viability, T/C (second compound 3.16 µM, first compound 0.001 µM) was 37%, the viability, T/C (second compound 3.16 µM, first compound 0.00316 µM) was 37.2% and the viability, T/C (second compound 3.16 µM, first compound 0.01 µM) was 49%. It also gave a viability, T/C [24] of 65.2%, a viability, T/C [25] of 64.5% and a viability, T/C (second compound 10 µM, first compound 0.000316 µM) of 105%. The viability, T/C (second compound 10 µM, first compound 0.001 µM) was 90%, the viability, T/C (second compound 10 µM, first compound 0.00316 µM) was 85.8% and the viability, T/C (second compound 10 µM, first compound 0.01 µM) was 79.9%. The viability, T/C [30] was 80.8% and the viability, T/C [31] was 80.3%.
COc1cc2nccc(Oc3ccc(NC(=O)C4(C(=O)Nc5ccc(F)cc5)CC4)cc3)c2cc1OC + CC1OCC2(CCN(c3cnc(Sc4ccnc(N)c4Cl)c(N)n3)CC2)C1N was tested, and the IC50 [1] was 8050 nM, the IC50 [2] was 5530 nM and the IC50 [3] was 4800 nM. For the same compound, the IC50 [4] was under 31.6 nM, the IC50 [5] was 1090 nM and the viability, T/C [6] was 75.7%. It also gave a viability, T/C [7] of 90.5%, a viability, T/C [8] of 74.8% and a viability, T/C [9] of 77.8%. For the same compound, the viability, T/C [10] was 64.1%, the viability, T/C [11] was 46.7% and the viability, T/C [12] was 64.3%. It also gave a viability, T/C [13] of 74.3%, a viability, T/C [14] of 63.5% and a viability, T/C [15] of 71%. It also gave a viability, T/C [16] of 60.3%, a viability, T/C [17] of 37.8% and a viability, T/C [18] of 66.8%. It also gave a viability, T/C [19] of 64.5%, a viability, T/C [20] of 65.6% and a viability, T/C [21] of 60.6%. The viability, T/C [22] was 61%, the viability, T/C [23] was 32% and the viability, T/C [24] was 42.4%. The viability, T/C [25] was 46.4%, the viability, T/C [26] was 51.4% and the viability, T/C [27] was 52.5%. The viability, T/C [28] was 46.8%, the viability, T/C [29] was 46.2% and the viability, T/C [30] was 44.9%. It also gave a viability, T/C [31] of 48.7%, a viability, T/C [32] of 53.2% and a viability, T/C [33] of 56.5%. For the same compound, the viability, T/C [34] was 40.1% and the viability, T/C [35] was 27.7%.
O=C(c1cc(Cc2n[nH]c(=O)c3ccccc23)ccc1F)N1CCN(C(=O)C2CC2)CC1 was tested, and the viability, T/C (compound 0.0316 µM) was 99% [middle of 5 runs], the viability, T/C (compound 0.1 µM) was 95.1% [middle of 5 runs] and the viability, T/C (compound 0.316 µM) was 93.8% [middle of 5 runs]. The viability, T/C (compound 1 µM) was 94.8% [middle of 5 runs], the viability, T/C (compound 3.16 µM) was 89.3% [middle of 5 runs] and the viability, T/C (compound 10 µM) was 61% [middle of 5 runs]. It also gave an IC50 (curve of compound) of over 10000 nM.
